Test results reported in article PMC10781691, “Vertical pathway inhibition of receptor tyrosine kinases and BAD with synergistic efficacy in triple negative breast cancer” (NPJ Precision Oncology, 2024).
Read-outs that look alike come from different tables or passages of the source.

Columns and labels:
[1] = system: BAD phosphorylation at Ser99; experiment: Western blot of BAD phosphorylation at Ser99 in TNBC cells; format: cell-based, human; conditions: MDA-MB-231 and BT549 cells; for level of pBADSer99/BAD: 1 μM
[2] = system: MDA-MB-231 xenografts; experiment: Orthotopic xenograft, combination study; format: in vivo, BALB/c-nude mice; conditions: for cells of human origin in lung sections (IHC staining of human HPRT): MDA-MB-231-engrafted mice; for % Regression: Complete Response (100%) / % Regression: Partial Response (>50%) / % Regression: Disease Progression: MDA-MB-231 xenograft; for % Regression: Disease Progression: day 21 (xenograft volume >100 mm^3); for lung metastasis incidence (mice with detectable lung hHPRT mRNA, qPCR): n = 6, vehicle 3 out of 6
Experimental: (§1) In vivo bioluminescent imaging was performed to determine the incidence and metastatic burden of luciferase-labeled 4T1 cells. Mice were injected i.p. with 10 mg/ml of D-luciferin (Gold Biotechnology, MO, USA) and imaged using a PerkinElmer IVIS Spectrum system. PDX were generated as previously described by transplanting fresh fragments orthotopically into 8-week-old female nonobese diabetic (NOD)/severe combined immunodeficient (SCID) mice (Beijing Vital River Laboratory Animal Technology Co., Beijing, China) (P1, passage 1)[40]. The P1 xenografts were then fragmented, digested into single-cell suspension and implanted into mammary fat pad (100 μL PBS containing growth factor reduced 50% Matrigel) of NOD/SCID mice. Once orthotopic xenografts reached an approximate size of 100 mm^3, the mice were randomly divided into three groups (n = 8) for single drug studies and six groups (n = 6) for combination studies and Kaplan-Meier (KM) analyses. […] Animal body weight and xenograft size were measured daily using an electronic balance and a digital caliper, respectively. Xenograft volume (mm^3) was calculated by using the formula: 0.52 × length × [width]^2. Complete response (CR) was achieved if the average xenograft volume for the treatment group was unable to be determined for two or more consecutive measurements. Partial response (PR) was achieved if the average xenograft volume reduced to <50 mm^3 for two or more consecutive measurements. After 3-week drug treatment, all mice were sacrificed by CO2 inhalation. Tumor and vital organs were weighed and isolated for further analysis. IHC analysis of xenograft histology sections and quantitative polymerase chain reaction (qPCR) were performed as previously described.
Data represent means ± SD. *P < 0.05, **P < 0.01, and ***P < 0.001.
Data represent means ± SD (n=6). *P < 0.05, **P
< 0.01, and ***P < 0.001.
Abbreviations: ALT/GOT, alanine
aminotransferase/ glutamic oxaloacetic transaminase; AST/GPT, aspartate aminotransferase/
glutamic pyruvic transaminase; CREA, creatinine; UREA, urea; and ALB, albumin. Data
represent means ± SD. *P < 0.05, **P < 0.01, and ***P < 0.001.

[3] = system: USTC-0 PDX; experiment: TNBC patient-derived xenograft; format: in vivo, NOD/SCID mice; conditions: for survival of PDX-bearing mice / Median survival: USTC-0; for survival of PDX-bearing mice: single agents vs vehicle, combinations vs OSI-930 or Crizotinib alone; for Median survival: vehicle 25.5
Experimental: (§2) The effect of drug treatments on two patient-derived xenograft (PDX) models of TNBC, USTC-0 and USTC-1 were next examined. The use of the USTC-1 PDX was previously reported.
as §1, with “described. […] For PDX, xenograft growth was monitored daily by measurement of the xenograft volume until mice humane endpoint ( ~ 1000 mm^3).” for “described.”

[4] = system: USTC-1 PDX; experiment: TNBC patient-derived xenograft; format: in vivo, NOD/SCID mice; conditions: for Median survival: USTC-1, vehicle 22.5
Experimental: as §2
as §1, with “described. […] For PDX, xenograft growth was monitored daily by measurement of the xenograft volume until mice humane endpoint ( ~ 1000 mm^3).” for “described.”

[5] = system: MAPK and PI3K/AKT pathways; experiment: Western blot of PI3K/AKT and MAPK pathway proteins; format: cell-based, human
Experimental: Next, western blot analyses were performed to determine potential alteration in expression or activity of the target proteins along the MAPK and PI3K/AKT pathways. […] . […] CI analysis method.

[6] = system: MDA-MB-231 cells
[7] = system: MDA-MB-231 xenografts; experiment: Orthotopic xenograft, combination study; format: in vivo; conditions: Balb/c-nude mice, day 22; NCK 20 mg/kg, OSI 50 mg/kg, CRI 50 mg/kg
[8] = system: MDA-MB-231 cells; experiment: Foci formation (crystal violet); conditions: MDA-MB-231, 5 μM each
[9] = system: BT549 cells; experiment: Foci formation (crystal violet); conditions: BT549, 5 μM each
[10] = serum, NCK 20 mg/kg, OSI 50 mg/kg, CRI 50 mg/kg
[11] = Balb/c-nude mice, day 22, NCK 20 mg/kg, OSI 50 mg/kg, CRI 50 mg/kg
[12] = day 21, NCK 20 mg/kg q.d., OSI-930 20 mg/kg q.d., Crizotinib 50 mg/kg b.i.w.

## O=C(Nc1ccc(OC(F)(F)F)cc1)c1sccc1NCc1ccnc2ccccc12 [OSI-930]
[1]
  level of pBADSer99/BAD: significantly decreased the level of pBADSer99/BAD
[2]
  cells of human origin in lung sections (IHC staining of human HPRT): not in the lung sections
  % Regression: Disease Progression: 67%
  lung metastasis incidence (mice with detectable lung hHPRT mRNA, qPCR): none of the mice had lung metastasis
[2]; day 21
  % Regression: Complete Response (100%): 0%
  % Regression: Partial Response (>50%): 33%
[2]; [10]
  ALB: 30.61 ± 0.84 g/L
  ALT/GOT: 81.99±27.99 U/L
  AST/GPT: 298.22±75.62 U/L
  UREA: 12.36 ± 6.01 mmol/L
[3]; USTC-0, 21 days treatment
  PDX xenograft volume: significantly reduced the xenograft volume
[3]
  survival of PDX-bearing mice: markedly extended the survival
  Median survival: 34.0 days
[4]; USTC-1, 21 days treatment
  PDX xenograft volume: significantly reduced the xenograft volume
[4]
  Median survival: 29.5 days
[5]; BT549, 1 μM
  phosphorylated and total proteins of MAPK and PI3K/AKT pathways: significantly reduced the level of p-AKT (Ser473)/AKT
[5]; MDA-MB-231, 1 μM
  phosphorylated and total proteins of MAPK and PI3K/AKT pathways: significantly inhibited the PI3K/AKT pathway
[6]; MDA-MB-231 metastasis model
  micro-metastatic nodules in lung (H&E) vs vehicle: significantly reduced lung colonization
[7]
  Colon Length: 9.34±0.67 cm
[8]
  2D foci formation: significantly attenuated the capacity for foci formation
[9]
  2D foci formation: significantly attenuated the capacity for foci formation

## Oc1ccccc1C(c1cccnc1)N1CCN(c2cccc(Cl)c2Cl)CC1 (centres unmarked) [NCK, 2-((4-(2,3-dichlorophenyl)piperazin-1-yl)(pyridin-3-yl)methyl) phenol]
[1]
  level of pBADSer99/BAD: significantly decreased the level of pBADSer99/BAD
[1]; vs DMSO
  inhibition of BAD phosphorylation at Ser99 (decreased pBADSer99/BAD ratio), effective concentration: ≥ 0.1 μM
[2]; [11]
  Relative Heart Weight: 0.74±0.16%
  Relative Kidney Weight: 1.60±0.14%
  Relative Lung Weight: 2.39±0.57%
  Relative Spleen Weight: 0.77±0.14%
[2]
  cells of human origin in lung sections (IHC staining of human HPRT): not in the lung sections
  % Regression: Disease Progression: 50%
  lung metastasis incidence (mice with detectable lung hHPRT mRNA, qPCR): 1/6
[2]; day 21
  % Regression: Complete Response (100%): 33%
  % Regression: Partial Response (>50%): 17%
[2]; NCK 20 mg/kg q.d.
  MKI67 positivity in xenograft vs vehicle: significantly reduced MKI67 positivity
  TUNEL scores in xenograft vs vehicle: increased TUNEL scores
  level of pBADSer99 in resected xenograft vs vehicle: reduced the level of pBADSer99
[2]; [12]
  complete regression of xenografts: 33.33%
  complete regression of xenografts (number of xenografts): 2/6
[2]; [10]
  ALB: 28.48 ± 3.45 g/L
  ALT/GOT: 75.66±23.55 U/L
  AST/GPT: 296.04±102.48 U/L
  CREA: 23.49 ± 3.02 µmol/L
  UREA: 14.01 ± 3.33 mmol/L
[3]; USTC-0, 21 days treatment
  PDX xenograft volume: significantly reduced the xenograft volume
  reduction in xenograft burden vs vehicle: 66.0%
[3]
  survival of PDX-bearing mice: markedly extended the survival
  Median survival: 42.0 days
[4]; USTC-1, 21 days treatment
  PDX xenograft volume: significantly reduced the xenograft volume
  reduction in xenograft burden vs vehicle: 45.6%
[4]
  Median survival: 34.5 days
[5]; BT549, 1 μM
  phosphorylated and total proteins of MAPK and PI3K/AKT pathways: did not affect
[5]; MDA-MB-231, 1 μM
  phosphorylated and total proteins of MAPK and PI3K/AKT pathways: did not affect
[6]; [11]
  Relative Heart Weight: 0.66±0.08%
  Relative Kidney Weight: 1.72±0.18%
  Relative Liver Weight: 6.57±0.93%
  Relative Lung Weight: 0.82±0.05%
  Relative Spleen Weight: 0.75±0.13%
[6]; MDA-MB-231 metastasis model
  micro-metastatic nodules in lung (H&E) vs vehicle: significantly reduced lung colonization
[6]; MDA-MB-231 metastasis model, vehicle 0.19 ± 0.02 g
  Relative Lung Weight: 0.17 ± 0.01 g
[7]
  Colon Length: 9.55±0.84 cm
  Relative Liver Weight: 5.70±0.38%
[8]
  2D foci formation: significantly attenuated the capacity for foci formation
[9]
  2D foci formation: significantly attenuated the capacity for foci formation
